In a melting point compilation (Tetko et al.; mined from patent text by program, amines drawn as free bases though some values may be those of a salt) one finds melting point data, which are given here for 65 compounds.

Where only a bound is given, the exact number is not on record here.

Broadly, the melting point is the temperature of the solid-liquid transition. Regarding `C=CCC1(C(C)CC(=O)O)C(=O)NC(=O)NC1=O` (stereo not given), the melting point was 200 °C.

Turning to `Cc1cc(C2=NN(c3nncs3)C(C)Cc3cc4c(cc32)OCO4)ccc1[N+](=O)[O-]` (stereo not given), the melting point was 182 to 189 °C.

`N[C@@H](Cc1cccc(OCC(F)(F)F)c1)[C@H](O)c1ccc(F)cc1` (racemic): the melting point was 94 to 95 °C.

The compound `CC(NC=O)c1ccccc1C(F)(F)C(F)(F)c1ccccc1` (stereo not given) registered a melting point of 103 to 105 °C.

Turning to `O=C(O)CC1CSc2sccc2C1=O` (stereo not given), the melting point was in the range of 124 to 127 °C.

`O=CC(=C(Cl)c1ccc2c(c1)OCO2)c1ccc2c(c1)OCO2` displayed a melting point of 167 to 168 °C.

Turning to `CCCCCCOc1ccc(-n2cc(C(=O)OCC)cn2)cc1C#N`, the melting point was 93 to 94 °C.

For `COc1ccc(C2CNC(=O)NC2)cc1OCCCCc1ccccc1`, the melting point is 142 to 143 °C.

`CCNC(=S)NS(=O)(=O)c1cc2c(cc1OCC)OCCC2CNC(=O)N1CC(C)=C(CC)C1=O` (stereo not given) had a melting point of 178 to 180 °C.

Take `N#CC(c1ccc(C(F)(F)F)cc1)N1CCOCC1` (stereo not given): the melting point lay in the range of 89 to 90 °C.

Turning to `COc1cc2cc(N(C)C)sc2cc1OCc1ccccc1`, the melting point was 140 to 142 °C.

Turning to `CN(C)c1ccc(C2(CN)CCCC2)cc1`, the melting point was 87 to 89 °C.

As for `O=C(O)c1ccc(OCCNC(=O)C2Cc3ccccc3N2S(=O)(=O)c2ccc(-c3ccc(F)cc3Cl)cc2)cc1F` (stereo not given), the melting point is 98 to 102 °C.

`CCCCCCCCCC(=O)Nc1ccc2c(c1)C(=O)N(CCN1CCC(c3noc4cc(F)ccc34)CC1)C2=O` gave a melting point of 159 to 160 °C.

In the case of `CCOC(=O)Cn1cnc2c(Cl)nc(NC(=O)c3ccc(C4CCCCC4)cc3)nc21`, the melting point is 90 to 107 °C.

As for `COc1ccc(I)c2c1CC(NC(C)=O)CC2` (stereo not given), the melting point is 190 °C.

`O=C(O)COc1ccc2c(c1)-c1nc(SC(c3ccccc3)c3ccccc3)sc1CC2` returned a melting point of 141 to 143 °C.

In turn, `COCn1ccnc1C(O)(c1ccc(Cl)cc1Cl)c1ccc(Cl)cc1Cl` returned a melting point of 146 °C.

As for `Nc1c(Cl)cc(C(=O)C=Cc2ccncc2)c2c1OCCO2`, the melting point was in the range of 209 to 211 °C.

Compound `Cc1cc2c(cc1C)N(C)C(=O)c1cccnc1N2` yielded a melting point of 206 to 209 °C.

The compound `CCCC(=O)c1cnc2c(C(=O)OC)cccc2c1Nc1ccccc1C` returned a melting point of 113 to 115 °C.

With `NC(=O)N[C@H]1CC[C@H](NC(N)=O)CC1`, the melting point is greater than 320 °C.

Compound `CC(=O)Nc1ccc2c(c1)OC(C)(C)C=C2` showed a melting point of 80 to 81 °C.

`CCCCNc1c(C(=O)OCC)c(C)nc2nccnc12` displayed a melting point of 56 to 58 °C.

On to `CCOC(=O)c1c(Cl)nc(-c2cccc([N+](=O)[O-])c2)c([N+](=O)[O-])c1C(=O)OCC`, for which the melting point was in the range of 90 to 91 °C.

`COC(=O)C(Cc1ccccc1)NC(=O)C(N)(CC(=O)O)NC(=O)C(C)C` (stereo not given) yielded a melting point of 168 to 170 °C.

Turning to `Cc1ccc(Cl)cc1N1CN(C)CNC1=S`, the melting point is 171 to 173 °C.

As to `CCOC(=O)c1[nH]c2ccc(C)cc2c1C`, the melting point was 118 °C.

`CCOc1ccc2c(c1)n(C1CCCCC1)c(=O)n2S(=O)(=O)c1ccc(NC(=O)N(CC)CC)cc1OC` gave a melting point of 165 °C.

`N#CC1=C(C2CCCCC2)Nc2n[nH]cc2C1c1cccc(C#N)c1Br` (stereo not given): the melting point stood at 193 °C.

Turning to `O=Cc1ccc(C(=O)Nc2nccs2)cc1`, the melting point came to 189 °C.

Compound `N#Cc1ccc(-c2ccc(C(=O)O)cn2)cc1` came in with a melting point greater than 260 °C.

With `Cc1cc(-c2ccc(S(C)(=O)=O)cc2)n(-c2ccc(-c3ccoc3)cc2)c1`, the melting point was in the range of 154 to 156 °C.

Consider `O[C@@H](CNCCOc1ccc2oc(-c3ccon3)cc2c1)COc1ccccc1F`, for which the melting point lay within 109 to 110 °C.

For `Cc1cc(C(C)(C)C)cc(C)c1Cl`, the melting point was determined as 39 °C.

Compound `FC(F)(F)Oc1ccc(C=CC(C=Cc2ccc(OC(F)(F)F)cc2)=NNC2=NCCCN2)cc1` returned a melting point of 140 to 142 °C.

As for `COC[C@@H](NC(C)=O)C(=O)NCc1ccc(I)cc1`, the melting point lay within 159 to 160 °C.

For `c1ccc(Oc2cnccc2N2CCNCC2)cc1`, the melting point lay within 74 to 77 °C.

Regarding `CCCCCCCCCCCCCCCCCCOc1cc(C(N)=O)cc([N+](=O)[O-])c1`, the melting point was in the range of 117 to 120 °C.

`COC1Cc2ccc(F)cc2/C1=C/C(N)=O` (stereo not given): the melting point lay within 128 to 130 °C.

With `O=C(O)C1=Cc2cc(OCc3ccccc3)c(OCc3ccccc3)cc2CC1`, the melting point is 173 to 176 °C.

With `O=c1[nH]c2cc(F)c(NCCCC3CCCOC3)cc2o1` (stereo not given), the melting point fell in the range of 144 to 145 °C.

`CC(C)(C)OC(=O)N1CCc2c(n(CCO)c3c(Cl)c(Cl)ccc23)CC1` displayed a melting point of 117 to 120 °C.

For the compound `O=C(NN1CCCCC1)c1nn(-c2ccc(Cl)cc2Cl)c(-c2ccc(Cl)cc2)c1COCCO`, the melting point came out at 194 °C.

Compound `N=C(N)NC(=O)OCc1ccccc1` had a melting point of 120 to 122 °C.

Take `COc1ccc(C(=O)Nc2ccc3ccc(Nc4ccccc4)nc3n2)cc1`: the melting point was 245 °C.

Take `COc1cc(OC)c2c(=O)[nH]c(-c3cc(C)c(OCCN4CCCCCC4)c(C)c3)nc2c1`: the melting point was in the range of 198 to 199 °C.

The compound `COc1cc2nc(N3CCc4c(cccc4S(=O)(=O)N4CCN(C)CC4)C3)[nH]c(=O)c2cc1OC` had a melting point of 230 to 237 °C.

The compound `CCOC(=O)c1cc2c(O)nncc2nc1Nc1ccccc1` registered a melting point of 257 to 260 °C.

For `O=C1OCC(CNC2CCCCC2)C1(c1ccccc1)c1ccccc1` (stereo not given), the melting point lay within 129 to 131 °C.

With `COc1ccc(-c2cc(=S)ss2)cc1`, the melting point lay in the range of 110 to 111 °C.

On to `CCCCC(CC)Cn1c(=O)nc(N(C)C)n(C)c1=O` (stereo not given), for which the melting point lay within 74 to 75 °C.

Turning to `CC(=O)c1ccc(NC(=O)N2CCC3(CC2)CN(S(N)(=O)=O)c2ccccc23)cc1`, the melting point fell in the range of 233 to 236 °C.

Take `OC1(c2ccc(C(F)(F)F)cc2)CCN(Cc2ccccc2)CC1`: the melting point lay in the range of 115 to 117 °C.

On to `CCOC(=O)c1cn(C2CC2)c2c(F)c(N3CC[C@H](NC(=O)OC(C)(C)C)C3)c(F)cc2c1=O`, for which the melting point was in the range of 148 to 151 °C.

Compound `COc1ccc(CS(=O)CC(=O)NO)cc1` (stereo not given) came in with a melting point of 160 °C.

In turn, `CC(C)(C)OC(=O)Nc1cc(OC(C)(C)C)c(C#Cc2ccc(F)cc2)cc1N` gave a melting point of 183 °C.

Compound `CCOC(=O)COc1coc(C)cc1=O` had a melting point of 95 to 98 °C.

For the compound `CCCCc1oc2ccccc2c1C(=O)c1cc(Cl)c(O)c(Cl)c1`, the melting point is 110 to 114 °C.

`CONC(=O)CC(C#Cc1ccccc1)c1ccc(OC)c(OC2CCCC2)c1` (racemic) registered a melting point of 111 to 114 °C.

In the case of `CSc1cc(C(=O)O)cc([N+](=O)[O-])c1C(=O)c1ccccc1`, the melting point fell in the range of 210 to 213 °C.

`COC(=O)c1cc(C(C)=O)ccc1OCCCC(=O)O` had a melting point of 111 to 113 °C.

Consider `CCOC(=O)c1nc[nH]c1C(=O)OCC`, for which the melting point is 175 to 177 °C.

For `CCCn1nc2c(N)nc3ccccc3c2c1CC(C)(C)OCCS(C)(=O)=O`, the melting point lay within 197 to 200 °C.

`O=C(O)c1ccc(-c2csc(-c3ccncc3)n2)cc1` had a melting point greater than 300 °C.
